The results in this text go back to US12049615B2, “Systems and methods for electronically and optically monitoring biological samples” (Agilent Technologies, Inc., priority 2020, dated 2024).

Assay [1] concerns A549-Blue cells. Description: Real-time cell-substrate impedance monitoring of drug-induced apoptosis. The note with it: for change of impedance signal after drug addition: addition at the 25-hour time point, time- and dose-dependent. The class given is cell-based. On the procedure: (§1) Cell maintenance and assays were conducted at 37° C./5% CO2 in F-12K media (ATCC; catalog number 30-2004) containing 10% heat-inactivated FBS (Corning, catalog number 35016CV). While impedance was measured every 15 minutes, images were acquired once per hour. In each well, four fields of view were captured for each channel (brightfield, red, green, and blue). Exposure times were as follows: red (300 ms), green (300 ms), and blue (80 ms). The A549-Blue cell line, which stably expresses nuclear-localized blue fluorescent protein (BFP), was produced by transducing A549 cells (ATCC; catalog number CCL-185) with Agilent eLenti Blue (p/n 8711012) at a multiplicity of infection of 1. From day 2 to day 11 postinfection, 1 μg/mL puromycin was included in the growth medium to select for transductants. For real-time visualization of activated caspase 3, Agilent eCaspase 3 NucView 488 (p/n 8711005) was included in growth medium at a concentration of 5 μm. For real-time visualization of translocated phosphatidylserine, Agilent eAnnexin V Red (p/n 8711007) was included in growth medium at a concentration of 0.25 μg/mL. Agilent E-Plate VIEW microplates (p/n 00300601030) were also used. MG132 (Tocris; catalog number 1748/5) and staurosporine (Calbiochem; catalog number 569396) stocks were dissolved in DMSO.
A549-Blue cells (described above) were seeded into an E-PATE VIEW at a density of 10,000 cells/well. As the cells proliferate over the first day, they occupy an expanding surface area on the biosensor array, causing the impedance signal to rise steadily (FIG. 11A and FIG. 11B). If left untreated, the cells grow to confluence, saturating the biosensor array and giving a plateaued impedance signal. […] The kinetics of these drug-induced responses, and the overall shape of the impedance traces, are distinct for each compound. […] Although MG132 and staurosporine both induce apoptosis, they elicit distinct cellular behaviors en route to cell death, which becomes strikingly clear when real-time impedance is multiplexed with live cell imaging.

Assay [2] deals with A549-Blue cells. Nature of the assay: Live cell imaging (blue nuclei, % confluence, caspase 3, annexin V) of drug-treated cells. Type of assay: cell-based. Conditions: for total number of blue nuclei: four highest concentrations (MG132 1.9, 5.5, 16.7, 50 μm; staurosporine 0.125-1 μm, over the subsequent 60 hours). On the procedure:
as §1
Although A549-Blue cells already cover most of the well bottom by the 26-hour time point, in the absence of drug, they continue proliferating for another 50 hours, packing cells together at higher density (FIG. 12A). Consistent with this, the impedance signal plateaus at roughly 30 hours while the total number of blue nuclei continues to increase until ˜80 hours (FIG. 12A). Blue nuclei count is Obtained by an image processing algorithm to count the number of blue objects in the blue-fluorescent image. Each blue nuclei nucleus corresponds to an A549 cell as it was transduced to expresses nuclear-localized blue fluorescent protein. As such the number of blue nuclei in a well correspond to the number of viable A549-blue cells present in the well. […] Although, over time, these nuclei shrink in size and begin clustering together, they largely remain intact, explaining why the number of blue nuclei stays fairly constant in FIG. 12C. The above coupling of impedance with imaging clearly provides a more complete and nuanced understanding of drug-mediated A549 cell killing than would be possible using either technique alone. Moving beyond simple cell counts, we next probed the kinetics of biochemical phenomena that are specific to the apoptotic killing pathway.
Along with impedance and blue nuclei counts, the induction of apoptosis by MG132 was also tracked by percent cellular confluence, caspase 3 activation (causing cells to fluoresce green), and phosphatidylserine translocation (causing cells to fluoresce red). […] The bold white arrows in the panels for the 20- and 40-hour time points highlight large membrane blebs that contain phosphatidylserine in their outer leaflet.
Next, the continuous response of A549-Blue cells to MG132 was plotted using each of the image-based readouts. Blue nuclei counts (FIG. 14A) (FIG. 14A) display a dependency on drug concentration that closely reflects the impedance responses seen in (FIG. 11A), Despite the extensive apoptotic response, throughout the course of this assay the % cellular confluence never drops below 50% (FIG. 14B), where the cell confluence number is derived from bright field images through image processing algorithms. This is consistent with the fact that, unlike in vivo contexts, where apoptotic cells and their debris are removed through phagocytosis, in vitro, a large percentage of apoptotic cells continue to occupy the well bottom (FIG. 12B). […] Considering the number of cells that were seeded, their rate of growth, and the percentage of cells that display apoptotic markers (FIG. 13), the output numbers in FIGS. 14A-C are consistent with expectations. […]

Assay [3] deals with A549-Blue cells. Description: EC50 from dose response curves of impedance and image-based readouts (area under the curve). Conditions: area under the curve from drug addition to 60 hours after; four readouts (normalized cell index, green cell number, red cell number, blue nuclei number); four-parameter logistic fit. On the procedure: FIG. 16 provides a table and graphs showing the use of dose response curves to calculate EC50. Using real-time impedance (as represented by normalized cell index) data (FIG. 11A) and live cell imaging (green cell number, red cell number and blue nuclei number) data (FIGS. 14A-C), area under the curve was calculated, and is plotted here as a function of MG132 concentration. Data were fit to a four-parameter logistic equation to determine the EC50.
Using the impedance and image-based readouts presented in Examples II-IV, the EC50 for MG132 was calculated. The area under the curve, spanning from the time of drug addition to 60 hours after drug addition, was plotted as a function of MG132 concentration to yield the dose response curves seen in FIG. 16. The quality of the fitting for the four different readouts is quite good, with R2 values ranging from 0.96 to 0.98. The calculated EC50 values range from 0.86 to 3.0 μm, which is consistent with values reported in the literature. See Han, Y. H. et al. The Effect of MG132, a Proteasome Inhibitor on HeLa Cells in Relation to Cell Growth, Reactive Oxygen Species and GSH. Oncol. Rep. 2009, 22(1), 215-21.

Entries after “also recorded” stand apart in the source; their conditions may differ. Where a SMILES comes first, the peptide text is derived from it. The star is where a group is joined. Cbz = O=C(OCc1ccccc1)*

On to `CC(C)C[C@@H](C=O)NC(=O)[C@H](CC(C)C)NC(=O)[C@H](CC(C)C)NC(=O)OCc1ccccc1` [MG132] (Cbz-Leu-Leu-Leu-aldehyde), for which, in assay [1], the “change of impedance signal after drug addition” value is “marked decrease”. Further, in assay [1] (high concentrations of MG132 (FIG. 11A)), the “impedance signal at high concentrations” value is “drop to zero; also recorded: dropped to zero”. Moreover, the “number of caspase 3-activated cells exceeds number of phosphatidylserine translocated cells by” value in assay [2] (50 μM MG132, 40 hours following the first 20 hours of drug treatment) is given as “approximately 20%”. Moreover, the “time at which the number of blue nuclei begins to decrease” value in assay [2] (after drug addition, 50 μM MG132 (FIG. 15), same time caspase 3 activation and phosphatidylserine translocation become detectable) is approximately 10 h. For the same compound, the “number of caspase 3 positive (fluorescence green) objects” value in assay [2] (dependent on MG132 concentration (FIG. 14C)) is recorded as “increase over time”. Besides, the “number of annexin V positive (fluorescent red) objects” value in assay [2] (dependent on MG132 concentration (FIG. 14D)) was “increase over time”. The “total number of blue nuclei” value in assay [2] is listed as “decreases over time”. The same compound came in with an EC50 in assay [3] of 860 to 3000 nM.
For the compound `CN[C@@H]1C[C@H]2O[C@@](C)([C@@H]1OC)n1c3ccccc3c3c4c(c5c6ccccc6n2c5c31)C(=O)NC4` [staurosporine], the “change of impedance signal after drug addition” value in assay [1] is “marked decrease”. The “impedance response at the four highest concentrations” value in assay [1] (staurosporine 0.125, 0.250, 0.500, and 1 μm) was “plummet within the first few minutes”. The “total number of blue nuclei” value in assay [2] was “modest impact”. Further, in assay [2] (one hour after staurosporine addition), the “cell morphology by live cell imaging” value was “shrunk so severely that their cytoplasm is barely visible; also recorded: massive cytoplasmic shrinkage”.

By EC50 is commonly meant the concentration needed to bring the measured effect to its halfway point. Read a low EC50 as higher potency in that assay.
